Experimental data from patent publication US6015809A (priority 1999, dated 2000).
Converted amounts (≈) assume the structure as drawn.

How the values were obtained:
Type in all cases: cell-based
Aspergillus fumigatus = experiment: Antifungal activity, MIC microdilution; settings: strain ATCC 26933; RPMI 1640, 35° C., 24-48 hours
Procedure: (§1) Antifungal activity for the compounds of this invention was established by evaluating a representative compound of this invention (Compound I) against several strains of fungi. Briefly the following procedure was used to evaluate such activity. A 96 U-bottom microtiter plate was filled (50 μl/well) with RPMI 1640. The compounds to be evaluated were placed in appropriate wells, and serial diluted in successive wells to provide 11 dilutions. The concentrations ranged from 64 through 0.06 μg/ml. An adjusted inoculum of fungi (50 μl) was added to each well and the plates were incubated at 35° C. for 24-48 hours.

Candida glabrata = experiment: Antifungal activity, MIC microdilution; settings: strain ATCC 90030; RPMI 1640, 35° C., 24-48 hours
Procedure: as §1

Candida krussii = experiment: Antifungal activity, MIC microdilution; settings: strain 94-2; RPMI 1640, 35° C., 24-48 hours
Procedure: as §1

Candida parapsilosis = experiment: Antifungal activity, MIC microdilution; settings: RPMI 1640, 35° C., 24-48 hours
Procedure: as §1

Candida tropicalis = experiment: Antifungal activity, MIC microdilution; settings: RPMI 1640, 35° C., 24-48 hours
Procedure: as §1

Cryptococcus neoformans = experiment: Antifungal activity, MIC microdilution; settings: strain ATCC 90112; RPMI 1640, 35° C., 24-48 hours
Procedure: as §1

[1] = system: Filobasidiella neoformans; experiment: Antifungal activity, MIC microdilution; settings: strain ATCC 7472; RPMI 1640, 35° C., 24-48 hours
Procedure: as §1

Aspergillus flavus = experiment: Antifungal activity, MIC microdilution; settings: strain ATCC 12963; RPMI 1640, 35° C., 24-48 hours
Procedure: as §1, with “Briefly” for “Antifungal activity for the compounds of this invention was established by evaluating a representative compound of this invention (Compound I) against several strains of fungi. Briefly”

Aspergillus niger = experiment: Antifungal activity, MIC microdilution; settings: strain S-430; RPMI 1640, 35° C., 24-48 hours
Procedure: as §1, with “Briefly” for “Antifungal activity for the compounds of this invention was established by evaluating a representative compound of this invention (Compound I) against several strains of fungi. Briefly”

Candida albicans = experiment: Antifungal activity, MIC microdilution; settings: RPMI 1640, 35° C., 24-48 hours
Procedure: as §1, with “Briefly” for “Antifungal activity for the compounds of this invention was established by evaluating a representative compound of this invention (Compound I) against several strains of fungi. Briefly”

Candida lusitaniae = experiment: Antifungal activity, MIC microdilution; settings: strain 94-3; RPMI 1640, 35° C., 24-48 hours
Procedure: as §1, with “Briefly” for “Antifungal activity for the compounds of this invention was established by evaluating a representative compound of this invention (Compound I) against several strains of fungi. Briefly”

Candida pseudotropicalis = experiment: Antifungal activity, MIC microdilution; settings: strain ATCC 28838; RPMI 1640, 35° C., 24-48 hours
Procedure: as §1, with “Briefly” for “Antifungal activity for the compounds of this invention was established by evaluating a representative compound of this invention (Compound I) against several strains of fungi. Briefly”

Candida rugosa = experiment: Antifungal activity, MIC microdilution; settings: strain 94-10; RPMI 1640, 35° C., 24-48 hours
Procedure: as §1, with “Briefly” for “Antifungal activity for the compounds of this invention was established by evaluating a representative compound of this invention (Compound I) against several strains of fungi. Briefly”

Candida zeylanoided = experiment: Antifungal activity, MIC microdilution; settings: strain 94-15; RPMI 1640, 35° C., 24-48 hours
Procedure: as §1, with “Briefly” for “Antifungal activity for the compounds of this invention was established by evaluating a representative compound of this invention (Compound I) against several strains of fungi. Briefly”

Saccharomyces cerevisiae = experiment: Antifungal activity, MIC microdilution; settings: strain ATCC 2601; RPMI 1640, 35° C., 24-48 hours
Procedure: as §1, with “Briefly” for “Antifungal activity for the compounds of this invention was established by evaluating a representative compound of this invention (Compound I) against several strains of fungi. Briefly”

[2] = system: A2780DDP (ovarian--resistant to cis-platin) tumor cells; experiment: Antineoplastic activity in vitro, tumor cell growth (sulforhrodamine B); settings: 48 hours
Excerpt: (§2) Antineoplastic activity for the compounds of this invention was established by evaluating the antineoplastic activity of a representative compound of this invention (Compound I) against six tumor cell lines in vitro. Briefly, tumor cells from six cell lines were placed in wells of a 96 well microtiter plate. The following tumor cell lines were used: A2780S (ovarian), A2780DDP (ovarian--resistant to cis-platin), A431 (vulva epidermoid origin), SW620 (colon), SKBR3 (breast), and MDA-MB-435 (breast). The tumors cells were grown in the presence of serial dilutions of the compound to be evaluated for 48 hours, and cell growth determined using a colorimetric procedure (sulforhrodamine B). The inhibition of growth was calculated compared to the number of cells at the time of test compound addition. Results are expressed as an IC50 (μg/ml). […] In particular, the compounds of this invention are useful against solid tumors, including sarcomas and carcinomas; and more particularly against astrocytomas, prostate cancer, breast cancer, colon cancer, small cell lung cancer, and ovarian cancer; and adult T-cell leukemia/lymphoma.

[3] = system: A2780S (ovarian) tumor cells; experiment: as above; settings: 48 hours
Excerpt: as §2

[4] = system: A431 (vulva epidermoid origin) tumor cells; experiment: as above; settings: A431, 48 hours
Excerpt: as §2

[5] = system: MDA-MB-435 (breast) tumor cells; experiment: as above; settings: MDA-MB-435, 48 hours
Excerpt: as §2

[6] = system: SKBR3 (breast) tumor cells; experiment: as above; settings: SKBR3, 48 hours
Excerpt: as §2

[7] = system: SW620 (colon) tumor cells; experiment: as above; settings: SW620, 48 hours
Excerpt: as §2

**Q.** How did the MIC (Aspergillus fumigatus) turn out when `CO[C@H]1C[C@@H]2CC[C@@H](C)[C@@](O)(O2)[C@]2(O)C(=O)N3[C@@H](CCC[C@@H]32)C(=O)O[C@H]([C@H](C)C[C@@H]2CC[C@@H](O)[C@H](OC)C2)CC(=O)[C@H](C)/C=C(\C)[C@@H](O)[C@@H](OC)C(=O)[C@H](C)C[C@H](C)/C=C/C=C/C=C/1C` [Compound I, (1S,2R,3R,6S,8S,9E,11E,13E,15S,17R,19R,20R,21E,23R,26S,29S,33R)-1,2,30-Trihydroxy-26-[(1R)-2-[(1S,3R,4R)4-hydroxy-3-methoxycyclohexyl]-1-methylethyl]-8,19-dimethoxy-3,9,15,17,21,23-hexamethyl-27,36-dioxa-35-azatetracyclo[27.4.2.1.[2,6].0[33,35]]hexatriaconta-9,11,13,21-tetraene-18,24,28,34-tetrone] was run?
**A.** ≥ 64 µg/mL

**Q.** And the MIC (Candida glabrata)?
**A.** 8 µg/mL (≈ 8.75 µM)

**Q.** And the MIC (Candida krussii)?
**A.** ≥ 64 µg/mL

**Q.** What about the MIC (Candida parapsilosis; strain 94-8) of the same compound?
**A.** 8 µg/mL (≈ 8.75 µM)

**Q.** What about the MIC (Candida parapsilosis; strain 94-9) of the same compound?
**A.** 8 µg/mL (≈ 8.75 µM)

**Q.** And the MIC (Candida parapsilosis; strain ATCC 90018)?
**A.** 8 µg/mL (≈ 8.75 µM)

**Q.** And the MIC (Candida tropicalis; strain 94-13)?
**A.** 16 µg/mL (≈ 17.5 µM)

**Q.** What about the MIC (Candida tropicalis; strain 94-14) of the same compound?
**A.** 8 µg/mL (≈ 8.75 µM)

**Q.** What about the MIC (Cryptococcus neoformans) of the same compound?
**A.** 8 µg/mL (≈ 8.75 µM)

**Q.** And the MIC [1]?
**A.** ≥ 64 µg/mL

**Q.** And the MIC (Aspergillus flavus)?
**A.** ≥ 64 µg/mL

**Q.** And the MIC (Aspergillus niger)?
**A.** ≥ 64 µg/mL

**Q.** And the MIC (Candida albicans; strain 94-1)?
**A.** 16 µg/mL (≈ 17.5 µM)

**Q.** And the MIC (Candida albicans; strain 1063)?
**A.** 16 µg/mL (≈ 17.5 µM)

**Q.** And the MIC (Candida albicans; strain 1117)?
**A.** 32 µg/mL (≈ 35 µM)

**Q.** And the MIC (Candida albicans; strain ATCC 90028)?
**A.** 16 µg/mL (≈ 17.5 µM)

**Q.** And the MIC (Candida albicans; strain C-83)?
**A.** ≥ 64 µg/mL

**Q.** And the MIC (Candida lusitaniae)?
**A.** 4 µg/mL (≈ 4.38 µM)

**Q.** What about the MIC (Candida pseudotropicalis) of the same compound?
**A.** 4 µg/mL (≈ 4.38 µM)

**Q.** What about the MIC (Candida rugosa) of the same compound?
**A.** 16 µg/mL (≈ 17.5 µM)

**Q.** And the MIC (Candida zeylanoided)?
**A.** 8 µg/mL (≈ 8.75 µM)

**Q.** What about the MIC (Saccharomyces cerevisiae) of the same compound?
**A.** 8 µg/mL (≈ 8.75 µM)

**Q.** And the “IC50 (inhibition of growth)” value [2]?
**A.** 6.51 µg/mL

**Q.** And the “IC50 (inhibition of growth)” value [3]?
**A.** 8.756 µg/mL

**Q.** What about the “IC50 (inhibition of growth)” value [4] of the same compound?
**A.** 20.46 µg/mL

**Q.** What about the “IC50 (inhibition of growth)” value [5] of the same compound?
**A.** 27.28 µg/mL

**Q.** What about the “IC50 (inhibition of growth)” value [6] of the same compound?
**A.** 7.029 µg/mL

**Q.** And the “IC50 (inhibition of growth)” value [7]?
**A.** 24.84 µg/mL
